Experimental data published in patent publication US20200215204A1, “EARLY-ONSET PARKINSON'S DISEASE MODEL: (D331Y) PLA2G6 KNOCKIN MODEL, PLATFORM AND METHOD FOR DRUG SCREENING, AND KIT OF DETECTION” (Chang Gung Memorial Hospital, Linkou, priority 2019, published 2020).

Tests used:
[1] = test system: PLA2G6^D331Y/D331Y knockin mice; experiment: Locomotor activity in open field boxes after L-DOPA in homozygous (D331Y) PLA2G6 knockin mice; format: in vivo; settings: about 1.5 mg/kg; homozygous PLA2G6^D331Y/D331Y knockin mouse at about 9 months old
Protocol: Behavioral Assessments The locomotor activity of WT or (D331Y) PLA2G6 KI mice were evaluated in open field boxes for 60 minutes. Movements of animal were recorded and assessed with the TopScan video tracking system (Clever Sys., Inc.). The locomotor activity of mouse was examined by measuring the velocity and distance. To evaluate the therapeutic benefit of L-DOPA in PLA2G6^D331Y/D331Y mice, benserazide (0.5 mg/kg) and L-DOPA (1.5 mg/kg) were intraperitoneally administered into animal. The locomotor activity was recorded 40 min after the injection.

[2] = test system: MPTP-induced mice model of PD; settings: 25 mg/kg for 21 days; MPTP-induced mice model of PD (Zhao T. T. et al.); cited from earlier work
[3] = test system: PD patients carrying PLA2G6 mutations; settings: cited from earlier work

N[C@@H](Cc1ccc(O)c(O)c1)C(=O)O [L-DOPA]
symptoms of motor deficit [1]: significantly improve symptoms of said motor deficit | therapeutic effect [2]: significant therapeutic effect | effectiveness in treating patients [3]: effective
